Assay results: PMC6929626, “PET/MRI enables simultaneous in vivo quantification of β-cell mass and function” (Theranostics, 2020)

Assays:
[1] = LA-ICP-MS imaging of ^55Mn in pancreas sections, cross-validated with autoradiography; format: in vivo, mice
Description: The whole pancreata from control and transgenic RIP1-Tag2 mice were isolated after cervical dislocation under anesthesia. Then, the whole pancreata were embedded in O.C.T. (optimum cutting temperature) embedding compound (Sakura, Zoeterwonde, NL) and snap frozen at -20 °C. Subsequently, serial 20 µm cryosections were obtained using a Cryostat (Leica 1850, Leica GmbH, Wetzlar, DE) and exposed to a 35×43 cm Storage Phosphor Screen (445SI, Molecular Dynamics, Sunnyvale, CA, USA) at room temperature for 24 h and 48 h for animals sacrificed at 1 h and 24 h, respectively. Scanning of the phosphor imaging plate was performed using a Storm 840 scanner (STORM 840, Amersham Biosciences, Amersham, UK) with a spatial resolution of 50x50 µm^2 and analyzed using ImageJ software (US NIH, Bethesda, Maryland, USA). Thus, we calculated the main effect of the PET tracer uptake, expressed as islet-to-exocrine ratio to estimate the islet diameter identified as single spots throughout the pancreas sections in both groups (Fig. S3).
The autoradiography slides were scanned line-by-line at 60 µm laser spot size using an NWR 213 laser ablation system (New Wave Research, Fremont, CA, USA). […] The isotopes ^44Ca, ^65Cu, ^64Zn,^ 55Mn, ^13C were monitored among the exocrine and the endocrine tissue in the healthy and insulinoma mice. […]

VDCC = assay: Manganese-enhanced MRI (T1 maps, R1, estimated [Mn]) of pancreas and insulinomas; format: in vivo, mice; conditions: for [Mn]: estimated from (R1post-R1pre)/r1
Description: In brief, mice were fasted for 4-6 hours and anesthetized with 1-2% isoflurane/O2 gas mixture (Vetland, Louisville, KY, USA) before the in vivo measurements. A tail vein catheter was initially placed for the co-injection of 50 µL of tracer solution (0.12 MBq/g bodyweight) and 50 µL of MnCl2:Bicine solution (75 µmol/kg body weight). The animals were placed in supine position on the bed in order to attenuate the motion artifacts rising from the respiratory movements. Thus, [^64Cu]Ex4 and MnCl2 solution were co-injected i.v. as a bolus a few seconds after the beginning of dynamic PET measurements. An additional i.v. injection of glucose solution (1.5 g/kg) was performed five minutes after the PET tracer and MR contrast agent injection to enhance the metabolic uptake of Mn by the pancreas. PET quantification was performed by 20-min static frames acquired simultaneously with 7T MRI scanner using a compatible PET-insert or consecutively using an Inveon-PET scanner (Inveon Dedicated PET, Siemens Healthineers, Knoxville, TN, USA). MR images were acquired using a mouse body quadrature volume RF-resonator with an inner diameter of 40 mm (MT0205, Bruker) on a 7 T Preclinical MR scanner (BioSpec 70/30, Bruker BioSpin MRI GmbH, Ettlingen, DE). During the acquisition, we monitored the breathing with an MR-compatible breathing sensor. The body temperature was maintained at 37 °C using a water-based warming pad.
In vivo MR measurement started with the acquisition of a rapid acquisition with relaxation enhancement (RARE) turbo-spin-echo (TSE) sequence with a large field of view to perform whole-body imaging with the following MR parameters: fat suppression module, repetition time (TR)/echo time (TE)=800/30.8 ms, respectively, field of view (FoV)=64×32×23 mm^3, matrix size 256×128, one average, bandwidth (BW)=75 kHz, RARE Factor (RF)=16 and an isotropic resolution of 0.25 mm. Then, we acquired consecutive RF-spoiled and slab selective gradient-echo (GRE) pulse sequences with short TR and keeping at the minimum the TE and using the following MR parameters: TR/TE=10/1.9 ms, FoV=34×34×17 mm^3, matrix size 128×128, two averages, BW=75 kHz, Sharpness=7 and approximatively 3 min of acquisition time per scan. Quantification of T1 was calculated by the acquisition of either two flip angles (4°, 22°), 0.27×0.27 mm^2 of in-plane resolution and 0.53 mm of slice thickness, or three flip angles (4°, 14°, 27°) with an isotropic resolution of 0.27 mm as described in Table 1.
The volume of interest (VOI) for the entire pancreas (Pancreas^Control; Pancreas^RIP1-Tag2) and the detected insulinomas (Insulinomas^RIP1-Tag2) were manually drawn in Inveon Research Workplace (Siemens Heathineers) after co-registration of the PET images. The T1-w images and the T1 maps were as well co-registered and used as anatomical references. The co-registered VOIs were exported and analyzed in MATLAB (R2013b; The MathWorks, Natick, MA, USA) using an in-house script. The percent injected dose per mL (%ID/mL) of the PET tracer was calculated voxel-wise by adjusting the radioactivity units (kBq/mL) for the injected activity and the half-life of ^64Cu (t1/2=12.7 h). On the other hand, the longitudinal relaxation rate (R1=1/T1) was calculated from the respective region drawn on the T1 maps. For the quantification, we considered voxels with R1 values between 0.4 and 10 s^-1. The estimated concentrations of Mn ([Mn]) were also calculated voxel-wise by the subtraction image acquired before and after the injection of MR-contrast agent and using the relaxivity (r1) of MnCl2:Bicine ([Mn]∝∆R1=(R1post-R1pre)/r1), which was calculated separately in a phantom study (Method S1 and Fig. S10). The indexes of [Mn] after 24 h were calculated using the overall mean of R1 obtained before and after 24 h, due to the different anatomical localization of the pancreata. […]

- [Mn] (VDCC; Table S1, VOI Insulinomas 10-wk, 1 h, n=3/4): 1.4 ± 0.2 mM×10^-1
- log10(R1)×10^1 (VDCC; Table S1, VOI Insulinomas 10-wk, 1 h, group mean ± SD of medians, n=3/4): 1.8 ± 0.2
- [Mn] (VDCC; Table S1, VOI Insulinomas 10-wk, 24 h, n=3/3): 0.8 ± 0.2 mM×10^-1
- log10(R1)×10^1 (VDCC; Table S1, VOI Insulinomas 10-wk, 24 h, group mean ± SD of medians, n=3/3): 0.5 ± 0.5
- [Mn] (VDCC; Table S1, VOI Insulinomas 13-wk, 1 h, n=3/4): 0.9 ± 0.4 mM×10^-1
- log10(R1)×10^1 (VDCC; Table S1, VOI Insulinomas 13-wk, 1 h, group mean ± SD of medians, n=3/4): 0.6 ± 1.1
- [Mn] (VDCC; Table S1, VOI Insulinomas 13-wk, 24 h, n=3/3): 0.3 ± 0.4 mM×10^-1
- log10(R1)×10^1 (VDCC; Table S1, VOI Insulinomas 13-wk, 24 h, group mean ± SD of medians, n=3/3): 1.6 ± 0.2
- [Mn] (VDCC; Table S1, VOI Pancreas Control, 1 h, group mean ± SD, n=3/4): 1.8 ± 0.2 mM×10^-1
- log10(R1)×10^1 (VDCC; Table S1, VOI Pancreas Control, 1 h, group mean ± SD of medians, n=3/4): 2.7 ± 0.3
- [Mn] (VDCC; Table S1, VOI Pancreas Control, 24 h, group mean ± SD, n=3/3): 0.6 ± 0.2 mM×10^-1
- log10(R1)×10^1 (VDCC; Table S1, VOI Pancreas Control, 24 h, group mean ± SD of medians, n=3/3): 1.0 ± 0.8
- [Mn] (VDCC; Table S1, VOI Pancreas RIP1-Tag2 10-wk, 1 h, n=3/4): 1.2 ± 0.2 mM×10^-1
- log10(R1)×10^1 (VDCC; Table S1, VOI Pancreas RIP1-Tag2 10-wk, 1 h, group mean ± SD of medians, n=3/4): 1.5 ± 0.6
- [Mn] (VDCC; Table S1, VOI Pancreas RIP1-Tag2 10-wk, 24 h, n=3/3): 0.4 ± 0.1 mM×10^-1
- log10(R1)×10^1 (VDCC; Table S1, VOI Pancreas RIP1-Tag2 10-wk, 24 h, group mean ± SD of medians, n=3/3): 0.0 ± 0.2
- [Mn] (VDCC; Table S1, VOI Pancreas RIP1-Tag2 13-wk, 1 h, n=3/4): 1.0 ± 0.5 mM×10^-1
- log10(R1)×10^1 (VDCC; Table S1, VOI Pancreas RIP1-Tag2 13-wk, 1 h, group mean ± SD of medians, n=3/4): 0.9 ± 1.6
- [Mn] (VDCC; Table S1, VOI Pancreas RIP1-Tag2 13-wk, 24 h, n=3/3): 0.5 ± 0.4 mM×10^-1
- log10(R1)×10^1 (VDCC; Table S1, VOI Pancreas RIP1-Tag2 13-wk, 24 h, group mean ± SD of medians, n=3/3): 0.1 ± 0.3
- log10(R1)×10^1 (VDCC; VOI Insulinomas RIP1-Tag2 10-15 wk pooled, 1 h after i.v. 75 µmol/kg, mean ± SD): 1.2 ± 1.2
- log10(R1)×10^1 (VDCC; VOI Insulinomas RIP1-Tag2 10-15 wk pooled, 24 h after i.v. 75 µmol/kg, mean ± SD): 0.4 ± 0.5
- log10(R1)×10^1 (VDCC; VOI Pancreas Control, 1 h after i.v. 75 µmol/kg, 7 T, three flip angles, R1=1/T1, mean ± SD, n=3): 3.0 ± 0.7
- log10(R1)×10^1 (VDCC; VOI Pancreas Control, 24 h after i.v. 75 µmol/kg, 7 T, three flip angles, mean ± SD, n=6): 0.1 ± 0.6
- log10(R1)×10^1 (VDCC; VOI Pancreas RIP1-Tag2 10-15 wk pooled, 1 h after i.v. 75 µmol/kg, mean ± SD, n=7): 1.2 ± 1.1
- log10(R1)×10^1 (VDCC; VOI Pancreas RIP1-Tag2 10-15 wk pooled, 24 h after i.v. 75 µmol/kg, mean ± SD, n=13): -0.1 ± 0.4
- [Mn] estimated in vivo, times lower in detected insulinomas than in pancreas of control mice (VDCC; early time points (1 h)): ~2 times
Substance: MnCl2:Bicine
- spatial distribution of exogenous ^55Mn in pancreas sections ([1]; 1 h after injection, merged elemental images of ^55Mn, ^44Ca, ^64Zn, control and 13-wk RIP1-Tag2 mice): higher concentration of ^55Mn in the exocrine pancreas
- spatial distribution of exogenous ^55Mn in pancreas sections ([1]; 24 h after injection, control and RIP1-Tag2 mice): only low levels of ^55Mn were found in the exocrine pancreas
